Data on 7 molecules can be found in US20140199327A1, “METHODS OF PROMOTING DIFFERENTIATION” (Genentech, Inc., priority 2011, published 2014).

Data set [1] deals with 143B osteosarcoma xenograft. Description: 143B osteosarcoma xenograft model. The data set is classed as in vivo, NCr nude mice. As for the experimental part: U2-OS, HOS, or SAOS cells were transfected three times with pRS shUSP1 or shCTL as follows: Cells were initially transfected with shUSP1 or shCTL, cultured for 2 days, and selected with puromycin for 3 days. Cells were retransfected with pMACS and shUSP1 or shCTL, cultured for 2 days, sorted by anti-H-2K^k bead sort (Miltenyi), cultured for 1 day, and serially re-transfected with shUSP1 or shCTL. Cells were cultured for an additional 3 days and osteoblast and hMSC markers were assessed by flow cytometry, real-time RT-PCR, and ALP assay. 143B cells were transduced with pTRIPZ-based inducible USP1 or control shRNA vectors and puromycin-resistant cells were subcultured.
8-week-old female NCr nude mice were injected subcutaneously in the right hind flank with 2.5×10^6 143 B shUSP1 cells in a volume of 100 μl of HBSS+matrigel. Doxycycline-treated mice were fed 1 mg/mL solutions of doxycycline in 5% sucrose water. Mice were monitored for tumor establishment and growth as well as body weight changes. When mice in a given group achieved a mean tumor volume of 2000 mm^3 and/or reached 78 days post-inoculation, mice were euthanized and dissected to confirm the presence or absence of tumor formation.

A further data set deals with USP1. The data set is described as follows: In vitro deubiquitination assay. The following applies: purified USP1 and ubiquitinated ID2 from 293T cells. The class given is biochemical, human. As for the experimental part: 293T cells were transfected with USP1-Flag, USP1-[…]-Flag or ID2-Flag and HA-ubiquitin in separate batches. Ubiquitinated ID2-Flag was immunoprecipitated as described above from SDS-boiled lysates. USP1 and USP1 […] were immunoprecipitated with Flag M2-agarose beads following lysis in NP-40 lysis buffer. All samples were eluted from beads with 500 μg/ml 3×Flag peptide (Sigma). Samples were recombined in deubiquitination buffer (20 mM HEPES, 20 mM NaCl, 100 μg/ml BSA, 500 μM EDTA, 1 mM DTT, pH=8.3) and incubated for the indicated times at room temperature. Ubiquitin levels were assessed by immunoblot with HA antibodies.

Data set [2] deals with proteasome. The data set is described as follows: ID2 abundance after proteasome inhibition in 293T cells. The class given is cell-based, human. To be noted: MG-132 10 μM. The protocol: (§1) The human cell lines 143B, 293T, HOS, MG-63, SAOS-2, SJSA, and U2-OS (ATCC) were maintained in DMEM with 10% FBS (Sigma), 10 units/ml penicillin, and 10 μg/ml streptomycin (Gibco). Primary human osteoblasts (PromoCell) were expanded in primary osteoblast medium (PromoCell) and subcultured in DMEM supplemented as above. Primary human mesenchymal stem cells derived from normal bone marrow (Lonza) were subcultured in mesenchymal stem cell growth medium (Lonza). For osteogenic differentiation studies, hMSC were cultured in osteogenic differentiation medium (Lonza) supplemented with 100 ng/mL BMP-9 (R&D Systems). Primary human osteosarcomas were obtained from CytoMix, LLC, and from the Cooperative Human Tissue Network. […] Murine NIH-3T3 (ATCC) were cultured in supplemented DMEM. Wild-type and USP1^−/− DT-40 cells were a kind gift from K. Patel and were cultured in RPMI with 7% FBS and 3% chicken serum (Gibco). MG-132 (Calbiochem) was used at 10 μM. Cycloheximide (Sigma) was used at 25 μg/ml.
(§2) Rat monoclonal antibodies were raised against the C-terminal 100 amino-acids of human USP1 or WDR48 to produce the monoclonal USP1 antibody 5E10 and WDR48 antibody 9F10. […]

Data set [3] deals with proteasome. The data set is described as follows: ID protein abundance after proteasome inhibition in U2-OS cells. The class given is cell-based, human. The protocol: as §1, §2
The test system of data set [4] is proteasome. Description: ID2 abundance after proteasome inhibition in DT40 cells. The data set is classed as cell-based, chicken. As for the experimental part: as §1
Data set [5] deals with T1, ubiquitinated ID2-Flag (ID2 with C-terminal Flag epitope, modified with HA-ubiquitin, affinity purified from 293T cells).
T1 chain: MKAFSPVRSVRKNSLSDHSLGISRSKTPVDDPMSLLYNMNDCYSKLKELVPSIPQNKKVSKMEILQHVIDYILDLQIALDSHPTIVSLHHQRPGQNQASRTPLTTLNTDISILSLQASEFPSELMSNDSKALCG

Data set [6] has as its target T2, ID2 (co-transfected / co-expressed in 293T cells).
T2 chain: T1 chain

In data set [7] the target is T3, endogenous USP1 (U2-OS and HOS osteosarcoma cells) (human, UniProt O94782 1-785).
T3 construct: Endogenous protein immunoprecipitated from human cell lines
T3 sequence: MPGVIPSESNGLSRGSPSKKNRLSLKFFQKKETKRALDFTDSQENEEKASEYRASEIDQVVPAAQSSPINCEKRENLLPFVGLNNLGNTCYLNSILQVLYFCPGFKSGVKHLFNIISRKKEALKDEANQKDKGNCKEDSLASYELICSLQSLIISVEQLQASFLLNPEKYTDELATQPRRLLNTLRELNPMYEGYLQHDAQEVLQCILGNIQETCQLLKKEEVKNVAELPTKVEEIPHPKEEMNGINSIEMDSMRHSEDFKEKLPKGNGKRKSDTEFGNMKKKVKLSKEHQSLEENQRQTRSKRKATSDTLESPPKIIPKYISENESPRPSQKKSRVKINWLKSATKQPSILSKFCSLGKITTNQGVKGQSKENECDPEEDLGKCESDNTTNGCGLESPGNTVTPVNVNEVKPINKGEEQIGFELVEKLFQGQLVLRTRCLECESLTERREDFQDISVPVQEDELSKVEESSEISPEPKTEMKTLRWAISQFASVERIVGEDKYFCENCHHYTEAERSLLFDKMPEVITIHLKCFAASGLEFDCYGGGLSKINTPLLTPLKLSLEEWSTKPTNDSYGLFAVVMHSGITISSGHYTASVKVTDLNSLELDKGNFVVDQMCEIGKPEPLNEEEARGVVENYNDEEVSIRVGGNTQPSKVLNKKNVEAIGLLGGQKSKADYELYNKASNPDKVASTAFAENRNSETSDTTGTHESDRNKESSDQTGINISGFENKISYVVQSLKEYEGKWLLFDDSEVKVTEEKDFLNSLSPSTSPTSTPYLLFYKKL
Description: immunoprecipitation of endogenous USP1 from U2-OS cells, blot for ID2; control with nonspecific IgG.

Where a chain is given by its changes, count along the chain named. Names and notes keep the numbering of the source. Where a SMILES comes first, the peptide text is derived from it. The star is where a group is joined. Cbz = O=C(OCc1ccccc1)*

With “doxycycline-induced USP1 shRNA: doxycycline-inducible pTRIPZ shRNA targeting human USP1, 5′-AGGCAATACTTGCTATCTTAAT-3′ (SEQ ID NO:12), Open Biosystems”, the “xenograft tumors that achieved stasis and differentiation in situ” value in data set [1] (143B USP1-deficient xenograft tumors) is listed as “four of ten”. For the same molecule, the “ALP activity in xenografts” value in data set [1] (143B xenografts) was “enhanced ALP activity”. Moreover, in data set [1] (143B xenografts, doxycycline), the “ID1 and ID2 in xenografts” value was “reduced ID1 and ID2”; the “USP1 expression in xenografts” value was “suppressed USP1 expression”; the tumor growth result was “reduced 143B tumor growth”. Also, the “osteogenic gene expression in xenografts” value in data set [1] (143B xenografts, RT-PCR, in situ hybridization) is “promoted OSTEONECTIN, RUNX2, SPP1/OSTEOPONTIN, OSTERIX, and BGLAP/OSTEOCALCIN expression”.
`CCN1C(=O)C=CC1=O` [N-ethylmaleimide]: in the data set with USP1, the “decrease in ID2 ubiquitination by USP1” value was “sensitive”.
On to `CC(C)C[C@@H](C=O)NC(=O)[C@H](CC(C)C)NC(=O)[C@H](CC(C)C)NC(=O)OCc1ccccc1` [MG-132] (Cbz-Leu-Leu-Leu-aldehyde), for which, in the data set on proteasome [2], the “endogenous ID2 abundance” value is on record as “ID2 accumulates”. Moreover, the “ID expression after USP1 knockdown” value in the data set on proteasome [3] (U2-OS cells with USP1 knockdown) is “did restore ID expression”. In the data set on proteasome [3] (U2-OS cells, MG-132 alone), the ID protein abundance result was “did not by itself alter ID protein abundance”. Further, the ID2 abundance entry in the data set with proteasome [4] (USP1−/− DT40 cells) was “increased ID2”; in the data set on proteasome [4] (wild-type DT40 cells), “not”.

B1: USP1-Flag (wild-type human USP1 with in-frame C-terminal Flag epitope) (protein)
chain: T3 sequence
Regarding B1, in data set [5], the “in vitro deubiquitination assay (HA-ubiquitin immunoblot of ID2-Flag)” value is reported as “Ubiquitinated ID2 was decreased by wild-type USP1 but not USP1 C90S”.

B2: USP1 C90S-Flag (catalytically inactive point mutant of human USP1 with C-terminal Flag epitope) (protein)
chain: T3 sequence with C90S
On to B2, for which the “in vitro deubiquitination assay (HA-ubiquitin immunoblot of ID2-Flag)” value in data set [5] was “Ubiquitinated ID2 was decreased by wild-type USP1 but not USP1 C90S”.

B3: USP33-Flag (human USP33 with C-terminal Flag epitope) (protein)
chain: MTGSNSHITILTLKVLPHFESLGKQEKIPNKMSAFRNHCPHLDSVGEITKEDLIQKSLGTCQDCKVQGPNLWACLENRCSYVGCGESQVDHSTIHSQETKHYLTVNLTTLRVWCYACSKEVFLDRKLGTQPSLPHVRQPHQIQENSVQDFKIPSNTTLKTPLVAVFDDLDIEADEEDELRARGLTGLKNIGNTCYMNAALQALSNCPPLTQFFLDCGGLARTDKKPAICKSYLKLMTELWHKSRPGSVVPTTLFQGIKTVNPTFRGYSQQDAQEFLRCLMDLLHEELKEQVMEVEEDPQTITTEETMEEDKSQSDVDFQSCESCSNSDRAENENGSRCFSEDNNETTMLIQDDENNSEMSKDWQKEKMCNKINKVNSEGEFDKDRDSISETVDLNNQETVKVQIHSRASEYITDVHSNDLSTPQILPSNEGVNPRLSASPPKSGNLWPGLAPPHKKAQSASPKRKKQHKKYRSVISDIFDGTIISSVQCLTCDRVSVTLETFQDLSLPIPGKEDLAKLHSSSHPTSIVKAGSCGEAYAPQGWIAFFMEYVKRFVVSCVPSWFWGPVVTLQDCLAAFFARDELKGDNMYSCEKCKKLRNGVKFCKVQNFPEILCIHLKRFRHELMFSTKISTHVSFPLEGLDLQPFLAKDSPAQIVTYDLLSVICHHGTASSGHYIAYCRNNLNNLWYEFDDQSVTEVSESTVQNAEAYVLFYRKSSEEAQKERRRISNLLNIMEPSLLQFYISRQWLNKFKTFAEPGPISNNDFLCIHGGVPPRKAGYIEDLVLMLPQNIWDNLYSRYGGGPAVNHLYICHTCQIEAEKIEKRRKTELEIFIRLNRAFQKEDSPATFYCISMQWFREWESFVKGKDGDPPGPIDNTKIAVTKCGNVMLRQGADSGQISEETWNFLQSIYGGGPEVILRPPVVHVDPDILQAEEKIEVETRSL
As to B3, the “deubiquitinating activity against ID2” value in data set [6] is reported as “unlike USP1, USP33 lacked deubiquitinating activity against ID2 (data not shown)”.

B4: endogenous ID2 (U2-OS, HOS and 293T cells) (other)
chain: T1 chain
notes: Endogenous protein of human cell lines
Consider B4, for which the binding result in data set [7] is recorded as “binds”.
